For assay [1], the system named is CD4 T-cells co-cultured with MoDCs. Kind of assay: Mixed lymphocyte reaction (MLR) assay. In kind it is cell-based, human. The conditions noted are these: for CD3+ T cell numbers / production of IFNγ (secreted) / proportion of CD3+ T-cells that produce IFNγ: MLR, BCL-2 inhibitors at 1 μM. The method, then: Mixed Lymphocyte Reaction (MLR) assay was used to examine venetoclax effect on T-cell function in response to immune stimulation. Monocytic-derived dendritic cells (MoDCs) were generated from fresh human blood. PBMCs were isolated using a Ficoll gradient. The PBMCs were allowed to adhere for 2 hours. After 2 hours, cells in suspension were removed. Fresh AIM V™ medium (ThermoFisher cat. #12055091) supplemented with granulocyte-macrophage colony-stimulating factor (GM-CSF, 80 ng/mL) and IL-4 (50 ng/mL) was added to the culture. After 5 days, the MoDCs were stimulated with IL-1α and TNF-α (0.2 ng/mL each) for 48 hours to increase major histocompatibility complex class II molecules (MHCII) expression. These activated MoDCs were then co-cultured with CD4 T-cells (Biospecialty Corp.) at a ratio of 10:1 (T-cells:MoDCs) in a mixed lymphocyte reaction (MLR). The cells were treated with control IgG (Isotype) or anti-PD-1 antibody (nivolumab or ABBV-181 along with either dimethyl sulfoxide (DMSO) or BCL-2 inhibitors venetoclax (Compound (I)) or Compounds (II) or (III). Antibodies were added at 10 μg/mL and the compound concentrations of venetoclax were as indicated in FIG. 11. The MLR was cultured for 5 days, after which the cells were analyzed by flow cytometry using an LSRFortessa™ X-20 instrument (BD Biosciences) to determine cell number and functional cytokine (IFNγ) responses.

The subject of another assay is EMT6 tumors. Kind of assay: EMT6 mouse mammary carcinoma syngeneic model. The conditions noted are these: for complete responses (CR): EMT6, groups of 10 mice. In kind it is in vivo. The method, then:
All experiments were conducted in compliance with the National Institutes of Health Guide for Care and Use of Laboratory Animals guidelines in a facility accredited by the Association for the Assessment and Accreditation of Laboratory Animal Care (AAALAC). BALB/c, C57BL/6, CB6F1 (C57BL/6 bred with BALB/c) and SCID mice were obtained from Charles River (Wilmington, Mass.). SCID mice have severe combined immune deficiency (SCID) and are characterized by an absence of functional T- and B-cells.
EMT6, mouse mammary carcinoma and CT26, mouse colon carcinoma, cell lines were obtained from ATCC (Manassas, Va.). MC38, mouse colon carcinoma cell line was obtained from National Cancer Institute (NCI).
Compound (I),venetoclax, was formulated in 10% ethanol+30% PEG 400+60% Phosal® 50PG. Venetoclax was administered orally once a day for 14 days at 50 mg/kg/day.
1×10^5 CT26, EMT6 or MC38 cells were subcutaneously injected with Matrigel into the flanks of BALB/c, CB6F1 or C57BL/6 mice, respectively. Seven days later, mice were randomized to treatment groups of vehicle, venetoclax, anti-PD-1/PD-L1 or the combination of venetoclax and anti-PD-1/PD-L1. Tumor volume was determined via measurements of the length (L) and width (W) of the tumor with electronic calipers and the volume was calculated according to the following equation: V=L×W2/2 using Study Director Version 2.1.11 (Studylog Systems Inc., South San Francisco). Complete response (CR) was defined as reduction in tumor volume to ≤25 mm^3 over at least 3 successive measurements.

With `O=C(c1cc(-c2cc3c(cc2C(=O)N2Cc4ccccc4C[C@H]2CN2CCOCC2)OCO3)n2c1CCCC2)N(c1ccccc1)c1ccc(O)cc1` [Compound (III)], in assay [1], the “CD3+ T cell numbers” value is “declined comparably”, the “production of IFNγ (secreted)” value is given as “not antagonized” and the “proportion of CD3+ T-cells that produce IFNγ” value is recorded as “increase”.

In the case of “nivolumab: anti-PD-1 antibody, heavy chain SEQ ID NO: 9, light chain SEQ ID NO: 10”, the “proportion of CD4+ T-cells that produce IFNγ” value in assay [1] (MLR 5 days, with isotype control or anti-PD-1 antibody) is listed as “increased”. In addition, the “number of CD4+ T-cells” value in assay [1] (MLR cultured 5 days, antibodies at 10 μg/mL) is reported as “increased”.

On to “anti hu PD-L1 YW243.55.S70 [mu IgG2 a/k]: mouse anti-PD-L1 antibody, heavy chain SEQ ID NO: 5, light chain SEQ ID NO: 6”, for which the “complete responses (CR)” value is reported as 3 in the assay with EMT6 tumors and 3/10 in the assay with EMT6 tumors (listed as anti-PD-L1 antibody). In addition, in the assay with EMT6 tumors (EMT6 in CB6F1 mice, venetoclax 50 mg/kg/day orally 14 days, antibody 10 mg/kg IP every 4 days, 3 times, day 25), the “tumor growth inhibition (TGI)” value was 89%.

For the compound `Cn1ccc2cc(N(C(=O)c3cc(-c4cc5c(cc4C(=O)N4Cc6ccccc6C[C@H]4CN4CCOCC4)OCO5)n4c3CCCC4)c3ccc(O)cc3)ccc21` [Compound (II)], in assay [1], the “CD3+ T cell numbers” value is “declined comparably”, the “production of IFNγ (secreted)” value is “not antagonized” and the “proportion of CD3+ T-cells that produce IFNγ” value is “increase”.

(Values after patent publication US20190336496A1, “SELECTIVE BCL-2 INHIBITORS IN COMBINATION WITH AN ANTI-PD-1 OR AN ANTI-PD-L1 ANTIBODY FOR THE TREATMENT OF CANCERS” (AbbVie Inc., priority 2018, published 2019).)
